In patent US12084444B2, “Spiro-lactam NMDA modulators and methods of using same” (Tenacia Biotechnology (Hong Kong) Co., Limited, priority 2016, dated 2024):

Tests used:
Sprague Dawley rats [1] = test: Porsolt forced swim test; type: in vivo
Method: A non-clinical in vivo pharmacology study (Porsolt assay) was performed to measure antidepressant-like effects. A negative control (0.5% sodium carboxymethyl cellulose in 0.9% sterile saline vehicle) and a positive control (fluoxetine) are shown for comparison against test compound. The study allowed for the evaluation of the effects of each compound on the Porsolt forced swim test as assessed by the rats' response (reduced floating time) during a 5-minute swimming test.
(§1) Male 2-3 month old Sprague Dawley rats were used (Harlan, Indianapolis, IN). Rats were housed in Lucite cages with aspen wood chip bedding, maintained on a 12:12 light:dark cycle (lights on at 5 AM), and given ad libitum access to Purina lab chow (USA) and tap water throughout the study.
The Porsolt forced swim test adapted for use in rats was performed as described by Burgdorf et al., (The long-lasting antidepressant effects of rapastinel (GLYX-13) are associated with a metaplasticity process in the medial prefrontal cortex and hippocampus. Neuroscience 308:202-211, 2015). Animals were placed in a 46 cm tall×20 cm in diameter clear glass tube filled to 30 cm with tap water (23±1° C.) for 15 min on the first day (habituation) and 5 min on the subsequent test day. Positive control fluoxetine was dosed 3 times (24 h, 5 h and 1 h) prior to testing. Animals were tested 1 h or 24 h post-dosing with the test compounds or vehicle. Animals received a 15 min habituation session 1 day before the 5 min test. Water was changed after every other animal. Animals were videotaped, and floating time as defined as the minimal amount of effort required to keep the animals head above water was scored offline by a blinded experimenter with high inter-rater reliability (Pearson's r>0.9).
Each compound tested at dose level shown. Significance vs. vehicle group for each experiment is marked. […] A compound marked “No” was not statistically significant from vehicle. Data was averaged for test compound and vehicle groups (N approximately 8 per group) and the percent reduction in floating for group treated with test compound relative to group treated with vehicle is shown.

[2] = target: T1, NMDAR2A expressing HEK cell membranes (Homo sapiens, UniProt Q05586+Q12879); test: NMDAR agonist assay, [3H]MK-801 binding, NMDAR2A; type: biochemical; set-up: key to NMDAR2A B: log EC50: 0=−; ≥1×10^−9 M (e.g., −8)=+; <1×10^−9 M (e.g., −10)=++; conditions: 0.25 h, 50 μM glutamate; read-out: NMDAR2A A: % maximal [3H]MK-801 binding relative to 1 mM glycine
T1 construct: expressed in transfected cells; host or cells: HEK cells (membrane extract)
Method: (§2) Assays were conducted as described by Moskal et al., “GLYX-13: a monoclonal antibody-derived peptide that acts as an N-methyl-D-aspartate receptor modulator,” Neuropharmacology, 49, 1077-87, 2005. These studies were designed to determine if the test compounds act to facilitate NMDAR activation in NMDAR2A, NMDAR2B, NMDAR2C or NMDAR2D expressing HEK cell membranes as measured by increases in [^3H]MK-801 binding.
(§3) In the assay, 300 μg of NMDAR expressing HEK cell membrane extract protein was preincubated for 15 minutes at 25° C. in the presence of saturating concentrations of glutamate (50 μM) and varying concentrations of test compound (1×10^−15 M-1×10^−7 M), or 1 mM glycine. Following the addition of 0.3 μCi of [^3H]MK-801 (22.5 Ci/mmol), reactions were again incubated for 15 minutes at 25° C. (nonequilibrium conditions). Bound and free [^3H]MK-801 were separated via rapid filtration using a Brandel apparatus.
(§4) In analyzing the data, the DPM (disintegrations per minute) of [^3H]MK-801 remaining on the filter were measured for each concentration of test compound or for 1 mM glycine. The DPM values for each concentration of a ligand (N=2) were averaged. The baseline value was determined from the best fit curve of the DPM values modeled using the GraphPad program and the log(agonist) vs. response(three parameters) algorithm was then subtracted from all points in the dataset. The % maximal [^3H]MK-801 binding was then calculated relative to that of 1 mM glycine: all baseline subtracted DPM values were divided by the average value for 1 mM glycine. The EC50 and % maximal activity were then obtained from the best fit curve of the % maximal [^3H]MK-801 binding data modelled using the GraphPad program and the log(agonist) vs. response(three parameters) algorithm.
(§5) The tables below summarize the results for the wild type NMDAR agonists NMDAR2A, NMDAR2B, NMDAR2C, and NMDAR2D, and whether the compound is not an agonist (−), is an agonist (+), or is a strong agonist (++), where column A is based on the % maximal [^3H]MK-801 binding relative to 1 mM glycine (−=0; <100%=+; and >100%=++); and column B is based on log EC50 values (0=−; ≥1×10^−9 M (e.g., −8)=+; and <1×10^−9 M (e.g., −10)=++).

[3] = target: T2, NMDAR2A expressing HEK cell membranes (Homo sapiens, UniProt Q12879); test: NMDAR agonist assay, [3H]MK-801 binding, NMDAR2A; type: biochemical; set-up: key to NMDAR2A B: log EC50: 0=−; ≥1×10^−9 M (e.g., −8)=+; <1×10^−9 M (e.g., −10)=++; conditions: 50 μM glutamate
T2 construct: expressed in transfected cells; host or cells: HEK cells (membrane extract)
T2 sequence (Q12879 23-1464, other chains not shown): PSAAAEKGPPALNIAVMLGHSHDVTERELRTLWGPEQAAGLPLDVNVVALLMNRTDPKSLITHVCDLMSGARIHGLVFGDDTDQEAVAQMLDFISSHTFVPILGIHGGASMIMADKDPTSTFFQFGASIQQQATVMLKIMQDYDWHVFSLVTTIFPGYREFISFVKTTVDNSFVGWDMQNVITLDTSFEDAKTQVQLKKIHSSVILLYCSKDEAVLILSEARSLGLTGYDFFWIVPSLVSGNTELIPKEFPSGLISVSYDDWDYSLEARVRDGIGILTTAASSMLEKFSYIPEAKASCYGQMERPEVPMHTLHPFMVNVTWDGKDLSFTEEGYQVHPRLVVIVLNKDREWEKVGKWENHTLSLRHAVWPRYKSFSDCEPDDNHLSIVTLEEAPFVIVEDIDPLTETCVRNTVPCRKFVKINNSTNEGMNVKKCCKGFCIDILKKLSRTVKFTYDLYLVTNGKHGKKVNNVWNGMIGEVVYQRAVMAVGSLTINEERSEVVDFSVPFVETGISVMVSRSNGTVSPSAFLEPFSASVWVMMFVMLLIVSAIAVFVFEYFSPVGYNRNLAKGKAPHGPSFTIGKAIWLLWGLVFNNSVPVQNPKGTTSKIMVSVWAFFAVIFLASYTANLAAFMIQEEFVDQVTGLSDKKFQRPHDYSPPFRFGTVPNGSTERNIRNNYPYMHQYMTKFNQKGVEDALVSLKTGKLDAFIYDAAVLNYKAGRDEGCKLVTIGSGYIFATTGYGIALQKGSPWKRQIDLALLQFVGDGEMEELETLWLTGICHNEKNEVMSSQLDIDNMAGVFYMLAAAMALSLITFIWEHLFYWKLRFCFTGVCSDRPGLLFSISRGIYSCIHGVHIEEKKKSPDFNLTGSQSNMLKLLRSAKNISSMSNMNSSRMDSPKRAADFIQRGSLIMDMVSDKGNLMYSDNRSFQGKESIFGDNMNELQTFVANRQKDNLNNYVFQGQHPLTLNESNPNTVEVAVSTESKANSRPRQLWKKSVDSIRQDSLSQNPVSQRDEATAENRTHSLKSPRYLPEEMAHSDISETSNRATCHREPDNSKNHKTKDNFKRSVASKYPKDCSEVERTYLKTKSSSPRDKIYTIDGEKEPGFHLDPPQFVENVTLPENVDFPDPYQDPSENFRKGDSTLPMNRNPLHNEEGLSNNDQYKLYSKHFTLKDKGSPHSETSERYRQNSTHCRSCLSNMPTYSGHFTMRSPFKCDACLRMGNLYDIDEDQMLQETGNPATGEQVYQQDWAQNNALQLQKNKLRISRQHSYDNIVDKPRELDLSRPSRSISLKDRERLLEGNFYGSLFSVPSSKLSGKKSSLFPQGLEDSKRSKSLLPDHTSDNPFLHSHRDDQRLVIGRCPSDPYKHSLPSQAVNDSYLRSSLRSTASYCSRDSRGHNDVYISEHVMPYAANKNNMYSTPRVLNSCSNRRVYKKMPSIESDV
Method: as §2, §3, §4, §5

[4] = target: T3, NMDAR2B expressing HEK cell membranes (Homo sapiens, UniProt Q05586+Q13224); test: NMDAR agonist assay, [3H]MK-801 binding, NMDAR2B; type: biochemical; conditions: 50 μM glutamate; for EC50: read-out: NMDAR2B B: log EC50 (converted); for Emax: 0.25 h, read-out: NMDAR2B A: % maximal [3H]MK-801 binding relative to 1 mM glycine
T3 construct: expressed in transfected cells; host or cells: HEK cells (membrane extract)
T3 sequence (Q13224 27-1484, other chains not shown): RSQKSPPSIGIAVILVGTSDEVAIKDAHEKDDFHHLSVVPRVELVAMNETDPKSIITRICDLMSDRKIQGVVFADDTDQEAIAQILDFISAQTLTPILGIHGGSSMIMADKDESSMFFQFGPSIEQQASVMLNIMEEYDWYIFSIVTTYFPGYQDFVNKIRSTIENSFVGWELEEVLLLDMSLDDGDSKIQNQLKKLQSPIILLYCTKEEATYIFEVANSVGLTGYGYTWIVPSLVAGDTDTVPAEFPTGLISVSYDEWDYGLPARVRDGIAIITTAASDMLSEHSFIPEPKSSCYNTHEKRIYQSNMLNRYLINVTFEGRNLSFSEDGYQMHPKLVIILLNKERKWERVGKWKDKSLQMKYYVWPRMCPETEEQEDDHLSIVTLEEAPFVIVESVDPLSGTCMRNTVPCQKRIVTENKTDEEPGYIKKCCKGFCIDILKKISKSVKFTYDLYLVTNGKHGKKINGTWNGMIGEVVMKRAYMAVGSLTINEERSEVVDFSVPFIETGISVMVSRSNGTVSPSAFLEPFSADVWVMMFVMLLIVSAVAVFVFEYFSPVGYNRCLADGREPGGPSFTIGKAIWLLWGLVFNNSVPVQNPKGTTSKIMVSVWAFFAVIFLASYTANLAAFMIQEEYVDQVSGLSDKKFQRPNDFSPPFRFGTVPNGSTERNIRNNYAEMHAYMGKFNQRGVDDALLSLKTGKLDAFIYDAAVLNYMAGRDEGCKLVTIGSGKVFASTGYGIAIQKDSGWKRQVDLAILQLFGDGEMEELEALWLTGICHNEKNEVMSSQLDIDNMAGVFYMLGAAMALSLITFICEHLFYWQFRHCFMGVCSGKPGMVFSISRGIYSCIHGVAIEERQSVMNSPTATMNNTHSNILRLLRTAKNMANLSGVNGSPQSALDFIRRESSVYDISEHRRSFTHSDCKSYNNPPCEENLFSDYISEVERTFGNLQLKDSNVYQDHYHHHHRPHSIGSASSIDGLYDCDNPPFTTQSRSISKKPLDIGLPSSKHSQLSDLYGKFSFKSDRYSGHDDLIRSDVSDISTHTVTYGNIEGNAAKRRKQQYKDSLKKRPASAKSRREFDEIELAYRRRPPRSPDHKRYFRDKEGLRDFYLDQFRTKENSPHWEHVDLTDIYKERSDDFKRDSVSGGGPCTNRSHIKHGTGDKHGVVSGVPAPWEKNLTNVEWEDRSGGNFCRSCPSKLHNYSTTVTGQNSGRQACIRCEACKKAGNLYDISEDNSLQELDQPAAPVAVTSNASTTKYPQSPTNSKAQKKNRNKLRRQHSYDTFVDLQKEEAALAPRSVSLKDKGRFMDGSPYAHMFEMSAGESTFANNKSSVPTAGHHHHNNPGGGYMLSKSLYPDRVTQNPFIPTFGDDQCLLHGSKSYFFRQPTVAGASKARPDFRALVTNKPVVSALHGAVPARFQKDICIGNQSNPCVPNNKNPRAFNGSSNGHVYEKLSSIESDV
Method: as §2, §3, §4, §5

[5] = target: T4, NMDAR2C expressing HEK cell membranes (Homo sapiens, UniProt Q14957); test: NMDAR agonist assay, [3H]MK-801 binding, NMDAR2C; type: biochemical; conditions: 50 μM glutamate
T4 construct: expressed in transfected cells; host or cells: HEK cells (membrane extract)
T4 sequence (Q14957 20-1233, other chains not shown): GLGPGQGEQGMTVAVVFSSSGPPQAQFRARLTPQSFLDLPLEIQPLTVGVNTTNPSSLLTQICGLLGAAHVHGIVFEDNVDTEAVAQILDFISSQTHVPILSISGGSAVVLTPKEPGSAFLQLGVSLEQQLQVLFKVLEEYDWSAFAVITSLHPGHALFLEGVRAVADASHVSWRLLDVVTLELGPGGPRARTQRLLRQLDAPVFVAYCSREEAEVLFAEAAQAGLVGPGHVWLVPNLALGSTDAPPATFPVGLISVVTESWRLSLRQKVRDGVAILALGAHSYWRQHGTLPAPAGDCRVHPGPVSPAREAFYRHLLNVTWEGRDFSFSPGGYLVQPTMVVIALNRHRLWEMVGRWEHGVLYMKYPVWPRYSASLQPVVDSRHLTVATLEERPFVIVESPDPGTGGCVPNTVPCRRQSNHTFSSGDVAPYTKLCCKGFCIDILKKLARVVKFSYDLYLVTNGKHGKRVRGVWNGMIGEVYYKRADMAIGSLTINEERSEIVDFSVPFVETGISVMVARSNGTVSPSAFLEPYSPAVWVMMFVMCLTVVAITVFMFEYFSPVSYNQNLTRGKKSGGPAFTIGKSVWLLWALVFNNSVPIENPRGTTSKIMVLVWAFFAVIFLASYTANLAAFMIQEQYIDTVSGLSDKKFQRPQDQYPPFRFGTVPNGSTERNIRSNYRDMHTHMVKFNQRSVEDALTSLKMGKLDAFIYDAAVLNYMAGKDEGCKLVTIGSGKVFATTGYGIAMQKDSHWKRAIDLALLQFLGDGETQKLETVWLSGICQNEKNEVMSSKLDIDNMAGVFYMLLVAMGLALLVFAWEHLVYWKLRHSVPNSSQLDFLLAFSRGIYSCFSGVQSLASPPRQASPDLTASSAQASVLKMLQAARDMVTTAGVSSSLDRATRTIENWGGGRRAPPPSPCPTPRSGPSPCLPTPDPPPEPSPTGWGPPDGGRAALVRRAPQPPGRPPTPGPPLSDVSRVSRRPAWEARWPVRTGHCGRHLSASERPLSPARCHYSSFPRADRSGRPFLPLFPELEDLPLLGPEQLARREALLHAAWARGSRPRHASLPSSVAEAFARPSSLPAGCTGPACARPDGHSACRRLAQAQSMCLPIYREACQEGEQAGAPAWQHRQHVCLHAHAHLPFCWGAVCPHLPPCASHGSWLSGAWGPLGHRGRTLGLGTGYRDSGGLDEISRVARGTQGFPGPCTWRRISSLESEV
Method: as §2, §3
as §4, with “algorithm. […]” for “algorithm.”

[6] = target: T5, NMDAR2D expressing HEK cell membranes (Homo sapiens, UniProt O15399); test: NMDAR agonist assay, [3H]MK-801 binding, NMDAR2D; type: biochemical; conditions: 50 μM glutamate
T5 construct: expressed in transfected cells; host or cells: HEK cells (membrane extract)
Method: as §2, §3, §4, §5

[7] = target: T6, NMDAR2D expressing HEK cell membranes (Homo sapiens, UniProt O15399+Q05586); test: NMDAR agonist assay, [3H]MK-801 binding, NMDAR2D; type: biochemical; conditions: 50 μM glutamate; read-out: NMDAR2D B: log EC50 (converted)
T6 construct: expressed in transfected cells; host or cells: HEK cells (membrane extract)
Method: as §2, §3, §4, §5

IV pharmacokinetics = test: IV pharmacokinetics; set-up: species or system Sprague Dawley rats; conditions: Sprague Dawley, in vivo, rat, 2 mg/kg, normal saline; for Vd: read-out: Vss
Method: Sprague Dawley rats were dosed intravenously using a normal saline formulation containing 2 mg/kg of the compounds identified in the below table. The table below summarizes the results of the IV pharmacokinetics.

[8] = Oral pharmacokinetics (plasma, brain, CSF); type: in vivo, Sprague Dawley rats; conditions: rat, per os, 10 mg/kg; for AUC(0-t) / bioavailability / Tmax / Cmax: Sprague Dawley, plasma, po; for Tmax: normal saline
Method: In another experiment, Sprague Dawley rats were dosed per os using a normal saline formulation containing 10 mg/kg of the compounds identified in the table below. Plasma, brain, and CSF samples were analyzed at various time points over a 24 hour period. The table below summarizes the results of the oral pharmacokinetics.

Sprague Dawley rats [9] = test: Bennett model of mechanical analgesia (sciatic nerve chronic constriction injury); type: in vivo; conditions: 150 mg/kg PO
Method: The Bennett model of mechanical analgesia is used to assess the analgesic effects of compounds as measured by paw withdrawal threshold. Bennett G J, Xie Y K, “A peripheral mononeuropathy in rat that produces disorders of pain sensation like those seen in man,” Pain 33:87-107, 1988. […] Vehicle animals receive the surgery and then receive vehicle rather than test compound. Animals were tested 1 hr, 24 h and 1 wk post-test compound or vehicle administration.
as §1, with “used. Harlan was the supplier for all studies.” for “used (Harlan, Indianapolis, IN).”
Rats were anesthetized using inhaled isoflurane (2.5%). Sciatic nerve chronic constriction nerve injury surgery was performed as previously described (Bennett and Xie, 1988). An incision (˜1.5 cm in length) was made with a scalpel blade dorsally through skin on the right hind limb, parallel and posterior to femur. Using a small pointed hemostat, the biceps femoris and gluteus superficialis muscles were separated. Using curved blunt forceps, the common sciatic nerve was isolated and exposed. For the mechanical analgesia studies, the whole sciatic nerve was ligated. Using hemostats/forceps and chromic gut (5-0), the nerve was loosely ligated with a square knot; 3 ligatures, 1 mm apart were placed on the nerve. […] Testing occurred approximately 2 weeks post-surgery.
During testing, rats were acclimated to the surface of a suspended wire mesh grid (1 cm×1 cm, with the wire being 0.3 cm in diameter) for 15-20 min. Starting from the smallest, each Von Frey filament was pressed perpendicularly to the plantar surface of the affected (ipsilateral) hind paw until slightly bent and then held for 6 second. If an obvious hind paw withdrawal or a flinching behavior immediately after the withdrawal of the filament was not observed, the next larger filament was used in the same manner. In case of a response, a lower filament was used. This was repeated until six responses were collected.
For all studies, animals were baselined prior to study start to test for allodynia (defined as a paw withdrawal threshold under 5). A subset of animals was tested with gabapentin (150 mg/kg, PO) to ensure at least 50% analgesia. Once it was confirmed animals were ready for study initiation, animals were balanced across groups. All study investigators were blind to treatment conditions. Animals were dosed with 0.1, 1, 10, or 30 mg/kg of test compound via oral gavage (PO), control sets of animals were dosed with gabapentin (150 mg/kg, PO) or vehicle (0.5% Na-CMC in 0.9% sterile saline, PO). Testing occurred 1 h post-dosing with animals retested 24 hrs and 1 week post-dosing. The percent analgesia calculations for each animal were made using the following equation: % analgesia=[(log(x)−y)/((log (z)−y)]*100, where x=the paw withdrawal threshold for the drug-treated animal in grams, y=the average of the log(x) values for the vehicle treated group, and z=the paw withdrawal threshold for naïve animals in grams (historical value of 15 used). The results for Compound AA-2, where the percentage of analgesia is measured at 1 hour, 24 hours, and 1 week after compound administration are as follows: for 0.1 mg/kg dose: 22.3% at 1 h, 1.6% at 24 h, and 2.3% at 1 wk; for 1 mg/kg dose: 19.2% at 1 h, 10.7% at 24 h, and 11.0% at 1 wk; for 10 mg/kg dose: 38.1% at 1 h, 24.3% at 24 h, and 41.4% at 1 wk; and for 30 mg/kg dose: 24.4% at 1 h, 8.7% at 24 h, and 34.5% at 1 wk.

[10] = 1 h post-dose, 20 mg/kg, dosed 3 times (24 h, 5 h and 1 h) prior to testing
[11] = 1 h post-dose, 0.1 mg/kg, relative to vehicle group
[12] = 24 h post-dose, 0.1 mg/kg, relative to vehicle group

SMILES | Emax [2] [%] | NMDAR2A B: log EC50 [3] | EC50 [4] [nM] | Emax [4] [%] | NMDAR2C A: % maximal [3H]MK-801 binding relative to 1 mM glycine [5] | NMDAR2D A: % maximal [3H]MK-801 binding relative to 1 mM glycine [6] | EC50 [7] [nM] | AUC(0-t) (IV pharmacokinetics) [ng·h/mL] | C0 (IV pharmacokinetics) [ng/mL] | clearance (IV pharmacokinetics) [mL/min/kg] | half-life (IV pharmacokinetics) [min] | Vd (IV pharmacokinetics) [L/kg] | AUC(0-t) [8] [ng·h/mL] | bioavailability [8] [%] | Tmax [8] [min] | Cmax [8] [ng/mL] | Significance vs. vehicle (Sprague Dawley rats [1]; 1 h post-dose, 0.1 mg/kg) | % reduction in float time (Sprague Dawley rats [1]; [11]) [%] | Significance vs. vehicle (Sprague Dawley rats [1]; 24 h post-dose, 0.1 mg/kg) | % reduction in float time (Sprague Dawley rats [1]; [12]) [%] | other results
CNCCC(Oc1ccc(C(F)(F)F)cc1)c1ccccc1 (centres unmarked) [Fluoxetine, fluoxetine, reference compound] |  |  |  |  |  |  |  |  |  |  |  |  |  |  |  |  |  |  |  |  | % reduction in float time (Sprague Dawley rats [1]; [10]): 54%; Significance vs. vehicle (Sprague Dawley rats [1]; [10]): Yes (found to be statistically significant (p<=0.05) from vehicle at dose level shown)
COc1ccc(CN2CC3(CCNC(=O)C3)C2=O)cc1 (racemic) [AA-rac, 2-(4-methoxybenzyl)-2,7-diazaspiro[3.5]nonane-1,6-dione] | 0 | − | < 1 | < 100 | − (−=0) | + (<100%=+) | < 1 | 6300 | 5790 | 5.28 | 199 | 0.56 | 17800 | 57 | 40.2 | 5810 | Yes (found to be statistically significant (p<=0.05) from vehicle at dose level shown) | 77.4 | Yes (found to be statistically significant (p<=0.05) from vehicle at dose level shown) | 74.40 | CSF Cmax ([8]; CSF): 1466.9 ng/mL; Brain Cmax ([8]; brain): 951 ng/mL
COc1ccc(CN2C[C@]3(CCNC(=O)C3)C2=O)cc1 [AA-1, 2-(4-methoxybenzyl)-2,7-diazaspiro[3.5]nonane-1,6-dione] | 0 | − | < 1 | < 100 | − (−=0) | + (<100%=+) | ≥ 1 | 3430 | 2340 | 9.69 | 67.2 | 0.76 | 15500 | 90 | 19.8 | 8920 | Yes (found to be statistically significant (p<=0.05) from vehicle at dose level shown) | 74.4 | Yes (found to be statistically significant (p<=0.05) from vehicle at dose level shown) | 69.50 | 
NCC1(CC(=O)O)CCCCC1 [gabapentin, reference compound] |  |  |  |  |  |  |  |  |  |  |  |  |  |  |  |  |  |  |  |  | % analgesia, for the study (Sprague Dawley rats [9]; 1 week post-administration): under 5%; % analgesia, example (typical) control value (Sprague Dawley rats [9]; 1 wk): 0%; % analgesia, example (typical) control value (Sprague Dawley rats [9]; 1 h): 72%; % analgesia, for the study (Sprague Dawley rats [9]; 1 h post-administration): at least 50%; % analgesia, example (typical) control value (Sprague Dawley rats [9]; 24 h): 16%; % analgesia, for the study (Sprague Dawley rats [9]; 24 h post-administration): under 5%
